Source: the supplement of paper PMC10307832

Columns and labels:
Assay in all cases: relative viability (nuclei count vs DMSO), 5 days (fraction); higher = more cells survive
Veliparib + Crizotinib = compound: C[C@]1(c2nc3c(C(N)=O)cccc3[nH]2)CCCN1 [Veliparib] + C[C@@H](Oc1cc(-c2cnn(C3CCNCC3)c2)cnc1N)c1c(Cl)ccc(F)c1Cl [Crizotinib] (partner 1 µM)
Procedure, shortened: (§1)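 Lung cancer cell lines were pin-tool dosed in 1536-well plates on the day after seeding, with either a lone drug or a fixed anchor-drug dose plus five library-drug doses (not always all listed) in √10 steps. Nuclei were counted on 4× images after 5 days. Relative viability is the ratio of treated-well to vehicle-well nuclei counts, with each value a median of duplicate plates.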

[1] = compound: COC1=CC=C(C=C1)CN2C=CC3=C2C=C(C=C3)C(=O)NO + CC1(C)CCC(c2ccc(Cl)cc2)=C(CN2CCN(c3ccc(C(=O)NS(=O)(=O)c4ccc(N[C@H](CCN5CCOCC5)CSc5ccccc5)c(S(=O)(=O)C(F)(F)F)c4)cc3)CC2)C1 [Navitoclax] (partner 0.5 µM)
Procedure, shortened: as §1

Veliparib + Linsitinib = compound: C[C@]1(c2nc3c(C(N)=O)cccc3[nH]2)CCCN1 [Veliparib] + C[C@]1(O)C[C@@H](c2nc(-c3ccc4ccc(-c5ccccc5)nc4c3)c3c(N)nccn32)C1 [Linsitinib] (partner 1 µM)
Procedure, shortened: as §1

[2] = compound: COC1=CC=C(C=C1)CN2C=CC3=C2C=C(C=C3)C(=O)NO + CC(=O)c1c(C)c2cnc(Nc3ccc(N4CCNCC4)cn3)nc2n(C2CCCC2)c1=O [Palbociclib] (partner 0.5 µM)
Procedure, shortened: as §1

| Cell Line | relative viability (Veliparib + Crizotinib; first compound 0.02 µM) | relative viability (Veliparib + Crizotinib; first compound 0.06325 µM) | relative viability (Veliparib + Crizotinib; first compound 0.2 µM) | relative viability (Veliparib + Crizotinib; first compound 0.6325 µM) | relative viability (Veliparib + Crizotinib; first compound 2 µM) | relative viability ([1]; first compound 0.253 µM) | relative viability ([1]; first compound 0.8 µM) | relative viability ([1]; first compound 2.53 µM) | relative viability ([1]; first compound 8 µM) | relative viability (Veliparib + Linsitinib; first compound 0.02 µM) | relative viability (Veliparib + Linsitinib; first compound 0.06325 µM) | relative viability (Veliparib + Linsitinib; first compound 0.2 µM) | relative viability (Veliparib + Linsitinib; first compound 0.6325 µM) | relative viability (Veliparib + Linsitinib; first compound 2 µM) | relative viability ([2]; first compound 0.08 µM) | relative viability ([2]; first compound 0.253 µM) | relative viability ([2]; first compound 0.8 µM) | relative viability ([2]; first compound 2.53 µM) | relative viability ([2]; first compound 8 µM) | relative viability ([1]; first compound 0.08 µM) |
| --- | --- | --- | --- | --- | --- | --- | --- | --- | --- | --- | --- | --- | --- | --- | --- | --- | --- | --- | --- | --- |
| HCC-78 | 0.342 | 0.3 | 0.409 | 0.383 | 0.352 | 0.718 | 0.856 | 0.872 | 0.709 | 0.612 | 0.53 | 0.592 | 0.36 | 0.541 | 0.437 | 0.473 | 0.45 | 0.496 | 0.452 | – |
| HCC-366 | 0.592 | 0.38 | 0.543 | 0.401 | 0.419 | 1.05 | 1.14 | 1.06 | 1.13 | 0.511 | 0.623 | 0.536 | 0.572 | 0.574 | 0.339 | 0.372 | 0.38 | 0.367 | 0.389 | – |
| HCC-827 | 0.913 | 0.919 | 0.947 | 0.921 | 0.905 | 0.964 | 0.988 | 1.08 | 0.986 | 0.96 | 0.899 | 0.816 | 0.949 | 0.939 | 0.448 | 0.481 | 0.442 | 0.504 | 0.442 | 0.95 |
| HOP-62 | 0.981 | 0.795 | 0.836 | 0.866 | 0.933 | 0.984 | 1.02 | 1.08 | 1.02 | 1 | 0.923 | 0.738 | 0.987 | 0.983 | 0.321 | 0.442 | 0.431 | 0.413 | 0.493 | 0.547 |
| IA-LM | 0.947 | 0.689 | 0.743 | 0.753 | 0.75 | 0.882 | 1.02 | 0.851 | 0.695 | 0.411 | 0.494 | 0.538 | 0.544 | 0.708 | – | – | – | – | – | 0.675 |
| LC-2-ad | 0.458 | 0.396 | 0.483 | 0.46 | 0.443 | 0.427 | 0.561 | 0.527 | 0.552 | – | 0.83 | 0.787 | 0.819 | 0.786 | 0.446 | 0.532 | 0.506 | 0.484 | 0.47 | 0.421 |
| LCLC-97TM1 | 0.248 | 0.349 | 0.354 | – | 0.234 | 0.505 | 0.472 | 0.42 | 0.412 | 0.185 | 0.187 | 0.194 | – | 0.25 | – | 0.226 | 0.23 | 0.223 | 0.229 | – |
| LCLC-103H | 1.1 | 0.982 | 1.02 | 0.875 | 1.09 | – | – | – | – | 1.1 | 0.982 | 1.11 | 1.01 | 1.08 | 0.435 | 0.439 | 0.481 | 0.466 | 0.515 | – |
| NCI-H358 | – | 0.533 | 0.564 | 0.523 | 0.618 | – | – | – | – | – | 0.815 | 0.775 | 0.667 | 0.772 | – | 0.125 | 0.115 | 0.14 | 0.191 | – |
| NCI-H522 | – | – | – | – | – | – | – | – | – | – | – | – | – | – | – | 0.944 | 0.972 | 0.999 | 0.955 | – |
| NCI-H596 | 1.05 | 0.912 | 1.06 | 0.862 | 0.957 | 0.906 | 1.07 | 0.963 | 1.04 | 1 | 1.02 | 1.07 | 0.893 | 0.99 | – | – | – | – | – | 0.944 |
| NCI-H650 | 0.696 | 0.72 | 0.708 | 0.665 | 0.572 | – | – | – | – | 0.766 | 0.716 | 0.864 | 0.875 | 0.448 | 0.328 | 0.381 | 0.353 | 0.319 | 0.32 | – |
| NCI-H661 | 0.91 | 0.884 | 0.909 | 0.885 | 0.963 | – | – | – | – | 0.4 | 0.59 | 0.604 | 0.496 | 0.666 | – | 0.406 | 0.403 | 0.422 | 0.353 | – |
| NCI-H1299 | 1.04 | 0.945 | 0.95 | 0.928 | 0.948 | 1.06 | 1.07 | 1.07 | 1.02 | 0.905 | 0.931 | 0.921 | 0.898 | 0.988 | – | – | – | – | – | 1.01 |
| NCI-H1395 | – | – | – | – | – | 1.29 | 1.12 | 1.4 | 0.992 | – | 0.987 | 0.853 | 0.745 | 0.716 | – | 0.632 | 0.709 | 0.6 | 0.563 | 0.688 |
| NCI-H1563 | 0.91 | 0.762 | 0.89 | 0.857 | 0.808 | – | – | – | – | 1.23 | 1.07 | 1.27 | 1.12 | 1.12 | – | – | – | – | – | – |
| NCI-H1648 | – | – | – | – | – | – | – | – | – | – | – | – | – | – | 0.254 | 0.309 | 0.298 | 0.277 | 0.269 | – |
| NCI-H1650 | – | 0.899 | 1.11 | 0.81 | 0.919 | 1.32 | 1.17 | 1.18 | 0.925 | – | – | – | – | – | 0.355 | 0.341 | 0.354 | 0.426 | 0.351 | 1.07 |
| NCI-H1703 | 0.835 | 0.76 | 1.06 | 0.778 | 0.75 | 1.09 | 1.27 | 1.01 | 1.08 | 0.17 | 0.63 | 1.22 | 0.604 | 0.974 | – | – | – | – | – | 1.49 |
| NCI-H1793 | – | – | – | – | – | 0.672 | 0.479 | 0.406 | 0.424 | 0.864 | 0.804 | 0.956 | 0.728 | 0.828 | – | 0.344 | 0.324 | 0.32 | 0.248 | 0.461 |
| NCI-H2170 | 1.23 | 1.24 | 1.21 | 1.14 | 1.14 | 0.669 | 0.715 | 0.634 | 0.509 | – | – | – | – | – | 0.374 | 0.374 | 0.412 | 0.361 | 0.367 | 0.476 |
| NCI-H2342 | – | – | – | – | – | – | – | – | – | – | – | – | – | – | 0.467 | 0.586 | 0.52 | 0.538 | 0.559 | – |
| SW 900 | – | – | – | – | – | – | – | – | – | – | – | – | – | – | 0.491 | 0.564 | 0.565 | 0.525 | 0.51 | – |
